Reference: patent publication US4244954A, “Acridine compounds and methods of combatting viruses with them” (Sterling Drug Inc., priority 1978, dated 1981)
Where two headings read alike, the source gives them in different places.

What was measured:
[1] = system: herpes simplex virus 1; test: in vitro antiviral activity, serial dilution, herpes simplex virus type 1; format: cell-based; conditions: Human alphaherpesvirus 1, read-out: concentration at which active against herpes simplex virus 1
Experimental: (§1) Antiviral activity was determined in vitro by the conventional serial dilution technique against selected virus species such as herpes simplex virus types 1 and 2. In vivo antiviral activity was determined against herpes virus in the mouse genital model and the guinea pig skin infection model.

[2] = system: herpes simplex virus type 2; test: in vitro antiviral activity, serial dilution, herpes simplex virus type 2; format: cell-based; conditions: Human alphaherpesvirus 2
Experimental: as §1

[3] = system: Trypanosoma brucei; format: in vivo, mice; conditions: for curative effect against T. brucei infection: mice, oral
Experimental: (§2) Trypanosomacidal activity was determined against Trypanosoma brucei in mice. In a curative test medication was given (orally or parenterally) as a single dose or daily in equally subdivided doses eight hours apart for four days beginning 72 hours after intraperitoneal infection. In a prophylactic-suppressive test the total daily medication was given as a single treatment one day prior to infection, and thereafter for three consecutive days the total daily medications were administered as equally subdivided doses eight hours apart. The infection was uniformly fatal in five to six days in the absence of therapy. Chemotherapeutic effectiveness was based on extension of survival time. Tests were considered terminated 28 days after infection.

[4] = system: herpes simplex type 2; test: in vivo antiviral activity, mouse genital model; parameters: species or system mice
Experimental: as §1

[5] = system: six herpes simplex strains; test: plaque count reduction, six herpes simplex strains; format: cell-based, herpes simplex virus; conditions: at 4-10 mg./ml.
[6] = system: herpes simplex virus type 1; test: in vivo antiviral activity, guinea pig skin infection model; conditions: after 48 hours of topical treatment
Experimental: as §1

[7] = system: influenza virus A2 /Jap 170; test: influenza virus titers in ferret nasal washings; format: in vivo; conditions: 100-200 mg/kg/day
[8] = system: S. aureus; test: in vitro antimicrobial activity, serial dilution, S. aureus; format: cell-based; conditions: Staphylococcus aureus, read-out: minimum inhibitory concentration (MIC), bacteriostatic activity against S. aureus
Experimental: (§3) The antimicrobial activity of the compounds was determined in vitro by the conventional serial dilution technique against several species of bacteria and fungi, e.g. S. aureus, S. pyogenes, C. albicans, T. mentagrophytes.

[9] = system: S. pyogenes; test: in vitro antimicrobial activity, serial dilution, S. pyogenes; format: cell-based; conditions: Streptococcus pyogenes, read-out: minimum inhibitory concentration (MIC), bacteriostatic activity against S. pyogenes
Experimental: as §3

[10] = system: Endameba criceti; test: amebicidal activity in infected hamsters; format: in vivo; conditions: Mesocricetus auratus, 72 h, oral, read-out: dose at which active orally against Endameba criceti in hamsters
Experimental: Amebicidal activity was determined by oral administration of the test compound orally to hamsters infected with Endameba criceti and the amount of drug necessary to clear the animals of infection in three days was determined.

[11] = system: Trypanosoma brucei; test: prophylactic-suppressive test against Trypanosoma brucei infection in mice; format: in vivo; conditions: oral, 50 mg per kg per day
Experimental: as §2

[12] = system: C. albicans; test: in vitro antimicrobial activity, serial dilution, C. albicans; format: cell-based; conditions: Candida albicans, read-out: MIC, fungistatic activity against C. albicans
Experimental: as §3

[13] = system: T. mentagrophytes; test: in vitro antimicrobial activity, serial dilution, T. mentagrophytes; format: cell-based; conditions: Trichophyton mentagrophytes, read-out: MIC, fungistatic activity against T. mentagrophytes
Experimental: as §3

[14] = in vitro, read-out: concentration at which active against herpes simplex virus 2
[15] = read-out: concentration at which active in vitro against herpes simplex virus type 2
[16] = concentration at which active, read-out: antiviral activity against herpes type 2

Q: With `CN1CCN(CCOc2ccc3c(c2)c(=O)c2ccccc2n3C)CC1` [Example 9, 2-[2-(4-Methyl-1-piperazinyl)ethoxy]-10-methyl-9(10H)-acridinone] as the compound, how does the minimal effective concentration [1] read?
A: 25 µg/mL

Q: What about the minimal effective concentration [2, 14] of the same compound?
A: 25 µg/mL

Q: `COc1ccc(C2(O)c3ccccc3N(C)c3ccc(OCCN(C)C)cc32)cc1` (stereo not drawn) [Example 65, 2-(2-Dimethylaminoethoxy)-9,10-dihydro-9-(4-methoxyphenyl)-10-methyl-9-acridinol] was tested. Which “curative effect against T. brucei infection” value ([3]; 200 mg/kg/day×4) did it give?
A: completely effective

Q: Which minimal effective concentration [1] does the source give for `CN(C)CCOc1cccc2c1c(=O)c1ccccc1n2C` [Example 27, 1-(2-Dimethylaminoethoxy)-10-methyl-9(10H)-acridinone] here?
A: 6 µg/mL

Q: And the minimal effective concentration [2, 14]?
A: 6 µg/mL

Q: What about the “survival in mice with genital herpes simplex type 2 infection” value ([4]; concentrations ranging from 2.5 to 10%) of the same compound?
A: 50-90%

Q: What about the “reduction of the plaque counts of six herpes simplex strains” value [5] of the same compound?
A: at least 50%

Q: And the “reduction of virus titer of herpes simplex virus type 1 in guinea pig skin infection” value [6]?
A: more than 99%

Q: What about the “reduction in influenza virus A2 /Jap 170 titers in ferret nasal washings” value [7] of the same compound?
A: significant reduction

Q: `Cn1c2ccccc2c(=O)c2cccc(OCCN3CCCCC3)c21` [Example 15, 4-[2-(1-Piperidyl)ethoxy]-10-methyl-9(10H)-acridinone] was tested. Which minimal effective concentration [2, 14] did it give?
A: 12 µg/mL

Q: Which “curative effect against T. brucei infection” value ([3]; 100 mg/kg/day×4) does the source give for `CN(C)CCCOc1ccc2c(Cc3ccccc3)c3ccccc3[n+](C)c2c1.Cl.[Cl-]` [Example 82, 3-(3-Dimethylaminopropoxy)-10-methyl-9-benzylacridinium chloride hydrochloride] here?
A: completely effective

Q: And the MIC ([8]; in vitro)?
A: 31.3 µg/mL

Q: Which results are given for `CCN(CC)CCOc1ccc2c(c1)c(Cc1ccccc1)c1ccccc1[n+]2C.Cl.[Cl-]` [Example 85, 2-(2-Diethylaminoethoxy)-10-methyl-9-benzylacridinium chloride hydrochloride]?
A: curative effect against T. brucei infection ([3]; 100 mg/kg/day×4): completely effective; MIC ([8]; in vitro): 31.3 µg/mL; MIC [9]: 31.3 µg/mL

Q: How did the minimal effective concentration [2, 14] turn out when `Cn1c2ccccc2c(=O)c2cccc(OCCN3CCCC3)c21` [Example 13, 4-[2-(1-Pyrrolidyl)ethoxy]-10-methyl-9(10H)-acridinone] was run?
A: 12 µg/mL

Q: For `CN(C)CCOc1ccc2c(c1)c(Cc1cccc(F)c1)c1ccccc1[n+]2C.Cl.[Cl-]` [Example 84, 2-(2-Dimethylaminoethoxy)-10-methyl-9-(3-fluorobenzyl)acridinium chloride hydrochloride], which “curative effect against T. brucei infection” value ([3]; 200 mg/kg/day×4) is on record?
A: completely effective

Q: And the MIC ([8]; in vitro)?
A: 15.6 µg/mL

Q: What about the MIC [9] of the same compound?
A: 15.6 µg/mL

Q: For `CN(C)CCOc1ccc2c(c1)c(Cc1ccccc1)c1ccccc1[n+]2C.Cl.[Cl-]` [Example 78, 2-(2-Dimethylaminoethoxy)-10-methyl-9-benzylacridinium chloride hydrochloride], which “curative effect against T. brucei infection” value ([3]; 100 mg/kg/day×4) is on record?
A: completely effective

Q: And the minimal effective dose [10]?
A: 100 mg/kg

Q: Which results are given for `Cn1c2ccccc2c(=O)c2cc(OCCN3CCOCC3)ccc21` [Example 8, 2-[2-(4-Morpholinyl)ethoxy]-10-methyl-9(10H)-acridinone]?
A: minimal effective concentration [1]: 25 µg/mL; minimal effective concentration [2, 14]: 25 µg/mL

Q: For `CN(C)CCOc1ccc2c(c1)c(Cc1ccc(F)cc1)c1ccccc1[n+]2C.Cl.[Cl-]` [Example 79, 2-(2-Dimethylaminoethoxy)-10-methyl-9-(4-fluorobenzyl)acridinium chloride hydrochloride], which “curative effect against T. brucei infection” value ([3]; 200 mg/kg/day×4) is on record?
A: completely effective

Q: What about the minimal effective dose [10] of the same compound?
A: 100 mg/kg

Q: `CN(C)CCOc1ccc2c(c1)C(O)(c1ccccc1)c1ccccc1N2C` (stereo not drawn) [Example 37, 2-(2-Dimethylaminoethoxy)-9,10-dihydro-10-methyl-9-phenyl-9-acridinol] was tested. Which “effect against T. brucei infection, intramuscular” value ([3]; intramuscularly, single dose of 200 mg/kg three days after infection) did it give?
A: completely effective

Q: What about the “effect against T. brucei infection, intraperitoneal” value ([3]; intraperitoneally, single dose of 200 mg/kg three days after infection) of the same compound?
A: completely effective

Q: What about the “curative effect against T. brucei infection” value ([3]; 25 mg/kg/day×4) of the same compound?
A: completely effective

Q: What about the “effect against T. brucei infection, subcutaneous” value ([3]; subcutaneously, single dose of 200 mg/kg three days after infection) of the same compound?
A: completely effective

Q: And the “prophylactic effect against T. brucei infection” value [11]?
A: completely effective

Q: With `Cn1c2ccccc2c(=O)c2c(OCCN3CCCCC3)cccc21` [Example 33, 1-[2-(1-Piperidyl)ethoxy]-10-methyl-9(10H)-acridinone] as the compound, how does the minimal effective concentration [1] read?
A: 6 µg/mL

Q: For `COc1ccc2c(c1)c(Cc1ccccc1)c1ccc(OCCN(C)C)cc1[n+]2C.Cl.[Cl-]` [Example 87, 3-(2-Dimethylaminoethoxy)-7-methoxy-10-methyl-9-benzylacridinium chloride hydrochloride], which minimal effective concentration [2, 15] is on record?
A: 12 µg/mL

Q: What about the “effect against T. brucei” value ([3]; 200 mg/kg/day×4, route and test type not given) of the same compound?
A: ineffective

Q: What does the source list for `CN1C2CCCC1CC(Oc1cccc3c1c(=O)c1ccccc1n3C)C2` (stereo not drawn) [Example 34, exo-1-(9-Methylgranatanin-3-yloxy)-10-methyl-9(10H)-acridinone]?
A: minimal effective concentration [1]: 25 µg/mL; minimal effective concentration [2, 14]: 25 µg/mL

Q: `CN(C)CCOc1ccc2c(Cc3ccccc3)c3ccccc3[n+](C)c2c1.Cl.[Cl-]` [Example 81, 3-(2-Dimethylaminoethoxy)-10-methyl-9-benzylacridinium chloride hydrochloride] was tested. Which “curative effect against T. brucei infection” value ([3]; 100 mg/kg/day×4) did it give?
A: completely effective

Q: And the MIC ([8]; in vitro)?
A: 31.3 µg/mL

Q: What about the MIC [9] of the same compound?
A: 31.3 µg/mL

Q: How did the minimal effective concentration [2, 16] turn out when `CN(C)CCOc1ccc2c(c1)c(Cc1ccccc1)c1ccc(Cl)cc1[n+]2C.Cl.[Cl-]` [Example 86, 2-(2-Dimethylaminoethoxy)-6-chloro-10-methyl-9-benzylacridinium chloride hydrochloride] was run?
A: 12 µg/mL

Q: And the “curative effect against T. brucei infection” value ([3]; 50 mg/kg/day×4)?
A: ineffective

Q: What about the “toxicity to the animals in the oral curative test” value ([3]; mouse, in vivo, po, 200 mg/kg/day) of the same compound?
A: toxic to the animals

Q: What about the MIC [9] of the same compound?
A: 7.8 µg/mL

Q: What about the MIC [12] of the same compound?
A: 15.6 µg/mL

Q: What about the MIC [13] of the same compound?
A: 31.3 µg/mL

Q: What does the source list for `CCn1c2ccccc2c(=O)c2cc(OCCN3CCCC3)ccc21` [Example 11, 2-[2-(1-Pyrrolidyl)ethoxy]-10-ethyl-9(10H)-acridinone]?
A: minimal effective concentration [1]: 25 µg/mL; minimal effective concentration [2, 14]: 25 µg/mL

Q: With `Cn1c2ccccc2c(=O)c2cc(OCCCCN3CCCC3)ccc21` [Example 16, 2-[4-(1-Pyrrolidyl)butoxy]-10-methyl-9(10H)-acridinone] as the compound, how does the minimal effective concentration [1] read?
A: 6 µg/mL

Q: What about the minimal effective concentration [2, 14] of the same compound?
A: 6 µg/mL

Q: Which minimal effective concentration [1] does the source give for `Cn1c2ccccc2c(=O)c2cc(OCCN3CCCC3)ccc21` [Example 7, 2-[2-(1-Pyrrolidyl)ethoxy]-10-methyl-9(10H)-acridinone] here?
A: 6 µg/mL

Q: What about the minimal effective concentration [2, 14] of the same compound?
A: 6 µg/mL

Q: What about the “effect against herpes virus 2 genital infection in mice” value ([4]; mice, genital infection) of the same compound?
A: effective

Q: For `CN(C)CCOc1ccc2c(c1)c(Cc1ccc(Cl)cc1)c1ccccc1[n+]2C.Cl.[Cl-]` [Example 83, 2-(2-Dimethylaminoethoxy)-10-methyl-9-(4-chlorobenzyl)acridinium chloride hydrochloride], which minimal effective concentration [2, 16] is on record?
A: 25 µg/mL

Q: What about the “curative effect against T. brucei infection” value ([3]; 200 mg/kg/day×4) of the same compound?
A: ineffective

Q: What about the MIC ([8]; in vitro) of the same compound?
A: 7.8 µg/mL

Q: For `CN(C)CCOc1ccc2c(c1)c(=O)c1ccccc1n2C` [Example 1, 2-(2-Dimethylaminoethoxy)-10-methyl-9(10H)-acridinone], which minimal effective concentration [2, 15] is on record?
A: 3 to 6 µg/mL

Q: Which results are given for `Cc1ccc(Cc2c3ccccc3[n+](C)c3ccc(OCCN(C)C)cc23)cc1.Cl.[Cl-]` [Example 80, 2-(2-Dimethylaminoethoxy)-10-methyl-9-(4-methylbenzyl)acridinium chloride hydrochloride]?
A: curative effect against T. brucei infection ([3]; 200 mg/kg/day×4): ineffective; MIC [8]: 15.6 µg/mL; MIC [9]: 7.8 µg/mL

Q: For `CCN(CC)CCOc1ccc2c(c1)C(O)(c1ccccc1)c1ccccc1N2C` (stereo not drawn) [Example 38, 2-(2-Diethylaminoethoxy)-9,10-dihydro-10-methyl-9-phenyl-9-acridinol], which “curative effect against T. brucei infection” value ([3]; 50 mg/kg/day×4) is on record?
A: completely effective

Q: What does the source list for `CN(C)CCOc1ccc2c(c1)c(-c1ccccc1)c1ccccc1[n+]2C.Cl.[Cl-]` [Example 68, 2-(2-Dimethylaminoethoxy)-10-methyl-9-phenylacridinium chloride hydrochloride]?
A: curative effect against T. brucei infection ([3]; 25 mg/kg/day×4): completely effective; toxicity upon parenteral administration ([3]; mouse, in vivo): toxic; curative effect against T. brucei infection, parenteral ([3]; parenteral, 50 mg/kg dose level): some curative effect

Q: With `Cn1c2ccccc2c(=O)c2cc(OCCN3CCCCC3)ccc21` [Example 10, 2-[2-(1-Piperidyl)ethoxy]-10-methyl-9(10H)-acridinone] as the compound, how does the minimal effective concentration [1] read?
A: 6 µg/mL
